Measured values from US7998978B2 (Pfizer Inc., priority 2006, dated 2011).

The molecules below were run against T1, JNK1α1 (Homo sapiens, UniProt P45983) (assay: Coupled spectrophotometric (PK/LDH) JNK1α1 assay: % inhibition and Ki determination). Conditions: @1 uM; read-out: % Inhibition JNK-1.
T1 construct: catalytic domain containing amino acids 1-364 and N-terminal hexahistidine tag; hexahistidine (His6) (N); made in house; host or cells: E. coli BL21 (DE3)
Format: biochemical
Summary of the method: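 Initial rates were taken from the absorbance decrease at 340 nm at 30° C. Ki was fitted with a tight-binding model over 11 concentrations (top 100 μM); single-point inhibition was tested at 1 or 10 μM.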

T1 sequence (P45983 1-364): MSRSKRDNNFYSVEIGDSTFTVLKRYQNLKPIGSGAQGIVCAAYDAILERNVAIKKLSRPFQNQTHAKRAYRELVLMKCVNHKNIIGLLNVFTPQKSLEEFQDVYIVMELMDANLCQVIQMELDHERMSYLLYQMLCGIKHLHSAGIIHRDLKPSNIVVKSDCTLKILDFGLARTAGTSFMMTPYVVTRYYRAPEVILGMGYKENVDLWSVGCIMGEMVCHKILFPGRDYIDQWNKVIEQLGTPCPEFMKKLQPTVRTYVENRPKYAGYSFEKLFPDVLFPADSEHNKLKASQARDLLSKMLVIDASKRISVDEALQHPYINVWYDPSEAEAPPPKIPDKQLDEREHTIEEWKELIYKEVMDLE

inhibition at 1 µM | Structure (SMILES)
23% | O=C(NCCO)c1ccc2cnc(NC3CCCCC3)nc2c1 [Example 426, 2-(cyclohexylamino)-N-(2-hydroxyethyl)quinazoline-7-carboxamide]
25% | CC(C)Nc1ncc2ccc(C(=O)N[C@H](CO)CC3CCCCC3)cc2n1 [Example 429, N-[(1S)-2-cyclohexyl-1-(hydroxymethyl)ethyl]-2-(isopropylamino)quinazoline-7-carboxamide]
62% | O=C1CN2C[C@@H](Oc3ccc4cnc(N[C@H]5CC[C@H](O)CC5)nc4c3)CC[C@H]2CN1 [Example 287, (7S,9aS)-7-({2-[(trans-4-hydroxycyclohexyl)amino]quinazolin-7-yl}oxy)hexahydro-2H-pyrido[1,2-a]pyrazin-3(4H)-one]
13% | Cc1c(C(C)NC(=O)c2cccc3cnc(N[C@H]4CC[C@H](O)CC4)nc23)cnn1C (stereo partly drawn) [Example 479, N-[1-(1,5-dimethyl-1H-pyrazol-4-yl)ethyl]-2-[(trans-4-hydroxycyclohexyl)amino]quinazoline-8-carboxamide]
22% | O=C(N[C@@H]1COC[C@H]1O)c1ccc2cnc(NC3CCCC3)nc2c1 [Example 435, 2-(cyclopentylamino)-N-[(3R,4S)-4-hydroxytetrahydrofuran-3-yl]quinazoline-7-carboxamide]
37% | CO[C@H]1CCCC[C@@H]1Oc1ccc2cnc(N[C@H]3CC[C@H](O)CC3)nc2c1 [Example 291, trans-4-[(7-{[(1S,2S)-2-methoxycyclohexyl]oxy}quinazolin-2-yl)amino]cyclohexanol]

Same assay, conditions: @10 uM; read-out: % Inhibition JNK-1

inhibition at 10 µM | Structure (SMILES)
48% | CC(C)Nc1ncc2ccc(C(=O)NC(C)(C)CO)cc2n1 [Example 440, N-(2-hydroxy-1,1-dimethylethyl)-2-(isopropylamino)quinazoline-7-carboxamide]
65% | CCN1CCC(Oc2cccc3cnc(N[C@H]4CC[C@H](O)CC4)nc23)C1 (stereo partly drawn) [Example 259, trans-4-({8-[(1-ethylpyrrolidin-3-yl)oxy]quinazolin-2-yl}amino)cyclohexanol]
47% | Cc1nnc(CNC(=O)c2cccc3cnc(N[C@H]4CC[C@H](O)CC4)nc23)[nH]1 [Example 511, 2-[(trans-4-hydroxycyclohexyl)amino]-N-[(5-methyl-4H-1,2,4-triazol-3-yl)methyl]quinazoline-8-carboxamide]
71% | Cc1cc(C)n(CC(C)NC(=O)c2cccc3cnc(N[C@H]4CC[C@H](O)CC4)nc23)n1 (stereo partly drawn) [Example 483, N-[2-(3,5-dimethyl-1H-pyrazol-1-yl)-1-methylethyl]-2-[(trans-4-hydroxycyclohexyl)amino]quinazoline-8-carboxamide]

Same assay, conditions: JNK-1

Ki | Structure (SMILES)
7 nM | O=C(Cc1c(F)cccc1C(F)(F)F)Nc1cc2cc(-c3cn[nH]c3)ccc2cn1 [Example 33, N-[6-(1H-pyrazol-4-yl)isoquinolin-3-yl]-2-[2-(trifluoromethyl-6-fluoro)phenyl]acetamide]
56 nM | COC(=O)N1CCC(c2cccc3cnc(N[C@H]4CC[C@H](O)CC4)nc23)C1 (stereo partly drawn) [Example 196, methyl 3-{2-[(trans-4-hydroxycyclohexyl)amino]quinazolin-8-yl}pyrrolidine-1-carboxylate]
8 nM | O=C(Nc1cc2cc(-c3cn[nH]c3)ccc2cn1)[C@H]1C[C@@H]1c1ccccc1 [Example 54, (1S,2S)-2-phenyl-N-[6-(1H-pyrazol-4-yl)isoquinolin-3-yl]cyclopropanecarboxamide]
424 nM | CCCC(CO)NC(=O)c1ccc2cnc(N[C@H]3CC[C@H](O)CC3)nc2c1 (stereo partly drawn) [Example 332, 2-[(trans-4-hydroxycyclohexyl)amino]-N-[1-(hydroxymethyl)butyl]quinazoline-7-carboxamide]
31 nM | CC(C)C(=O)Nc1cc2cc(-c3cn[nH]c3)ccc2cn1 [Example 16, 2-methyl-N-[6-(1H-pyrazol-4-yl)isoquinolin-3-yl]propanamide]
8 nM | Cc1oc(-c2ccccc2)nc1CC(=O)Nc1cc2cc(-c3cn[nH]c3)ccc2cn1 [Example 51, 2-(5-methyl-2-phenyl-1,3-oxazal-4-yl)-N-[6-(1H-pyrazol-4-yl)isoquinolin-3-yl]acetamide]
607 nM | CC(C)C(=O)N[C@H]1CC[C@H](Nc2ncc3cccc(OC4CCOC4)c3n2)CC1 (stereo partly drawn) [Example 186, 2-methyl-N-(trans-4-{[8-(tetrahydrofuran-3-yloxy)quinazolin-2-yl]amino)cyclohexyl)propanamide]
7 nM | O=C(COc1ccc2ccccc2c1)Nc1cc2cc(-c3cn[nH]c3)ccc2cn1 [Example 26, 2-(2-naphthyloxy)-N-[6-(1H-pyrazol-4-yl)isoquinolln-3-yl]acetamide]
1100 nM | CC[C@@H](CO)NC(=O)c1ccc2cnc(NC(C)C)nc2c1 [Example 411, N-[(1S)-1-(hydroxymethyl)propyl]-2-(isopropylamino)quinazoline-7-carboxamide]
263 nM | CC(C)Nc1ncc2ccc(C(=O)NC(CO)c3ccccc3)cc2n1 (stereo not drawn) [Example 385, N-(2-hydroxy-1-phenylethyl)-2-(isopropylamino)quinazoline-7-carboxamide]
374 nM | CC[C@H](CO)NC(=O)c1cccc2cnc(N[C@H]3CC[C@H](O)CC3)nc12 [Example 458, 2-[(trans-4-hydroxycyclohexyl)amino]-N-[(1R)-1-(hydroxymethyl)propyl]quinazoline-8-carboxamide]
354 nM | O=C(Nc1ccccn1)c1ccc2cnc(N[C@H]3CC[C@H](O)CC3)nc2c1 [Example 330, 2-[(trans-4-hydroxycyclohexyl)amino]-N-pyridin-2-ylquinazoline-7-carboxamide]
220 nM | O=C(NCc1ccccn1)c1ccc2cnc(N[C@H]3CC[C@H](O)CC3)nc2c1 [Example 86, 2-[(trans-4-hydroxycyclohexyl)amino]-N-(pyridin-2-ylmethyl)quinazoline-7-carboxamide]
57 nM | CC[C@@H](CO)NC(=O)c1cccc2cnc(N[C@H]3CC[C@H](O)CC3)nc12 [Example 441, 2-[(trans-4-hydroxycyclohexyl)amino]-N-[(1S)-1-(hydroxymethyl)propyl]quinazoline-8-carboxamide]
455 nM | CCn1ccnc1CNC(=O)c1ccc2cnc(N[C@H]3CC[C@H](O)CC3)nc2c1 [Example 333, N-[(1-ethyl-1H-imidazol-2-yl)methyl]-2-([trans-4-hydroxycyclohexyl)amino]quinazoline-7-carboxamide]
274 nM | O[C@H]1CC[C@H](Nc2ncc3cccc(OC4CCN(c5ccncn5)CC4)c3n2)CC1 [Example 247, trans-4-({8-[(1-pyrimidin-4-ylpiperidin-4-yl)oxy]quinazolin-2-yl}amino)cyclohexanol]
126 nM | O=C(NCCO)c1cccc2cnc(N[C@H]3CC[C@H](O)CC3)nc12 [Example 108, 2-[(trans-4-hydroxycyclohexyl)amino]-N-(2-hydroxyethyl)quinazoline-8-carboxamide]
17 nM | O=C(CNC(=O)c1ccc(O)c(Cl)c1)Nc1cc2cc(-c3cn[nH]c3)ccc2cn1 [Example 56, 3-chloro-4-hydroxy-N-(2-oxo-2-{[6-(1H-pyrazol-4-yl)isoquinolin-3-yl]amino}ethyl)benzamide]
160 nM | CC[C@H](C)[C@@H](CO)NC(=O)c1ccc2cnc(N[C@H]3CC[C@H](O)CC3)nc2c1 [Example 378, 2-((trans-4-hydroxycyclohexyl)amino]-N-[(1S,2S)-1-(hydroxymethyl)-2-methylbutyl]quinazoline-7-carboxamide]
29 nM | O[C@H]1CC[C@H](Nc2ncc3cccc(-c4ccccc4)c3n2)CC1 [Example 205, trans-4-[(8-phenylquinazolin-2-yl)amino] cyclohexanol]
3030 nM | O=C(N[C@H](CO)CC1CCCCC1)c1ccc2cnc(NC3CCCC3)nc2c1 [Example 419, N-[(1S)-2-cyclohexyl-1-(hydroxymethyl)ethyl]-2-(cyclopentylamino)quinazoline-7-carboxamide]
221 nM | O=C(NC1(CO)CCCC1)c1cccc2cnc(N[C@H]3CC[C@H](O)CC3)nc12 [Example 454, 2-[(trans-4-hydroxycyclohexyl)amino]-N-[1-(hydroxymethyl)cyclopentyl]quinazoline-8-carboxamide]
81 nM | CS(=O)(=O)N1CCC(c2cccc3cnc(N[C@H]4CC[C@H](O)CC4)nc23)C1 (stereo partly drawn) [Example 195, trans-4-({8-[1-(methylsulfonyl)pyrrolidin-3-yl]quinazolin-2-yl}amino)cyclohexanol]
483 nM | O[C@H]1CC[C@H](Nc2ncc3cccc(OC4CCOC4)c3n2)CC1 (stereo partly drawn) [Example 171, trans-4-{[8-(tetrahydrofuran-3-yloxy)quinazolin-2-yl]amino}cyclohexanol]
223 nM | CS(=O)(=O)CCNC(=O)c1cccc2cnc(N[C@H]3CC[C@H](O)CC3)nc12 [Example 106, 2-[(trans-4-hydroxycyclohexyl)amino]-N-[2-(methylsulfonyl)ethyl]quinazoline-8-carboxamide]
269 nM | CC(C)(CN1CCOCC1)NC(=O)c1ccc2cnc(N[C@H]3CC[C@H](O)CC3)nc2c1 [Example 89, N-(1,1-dimethyl-2-morpholin-4-ylethyl)-2-[(trans-4-hydroxycyclohexyl)amino]quinazoline-7-carboxamide]
480 nM | CC[C@@H](CO)NC(=O)c1ccc2cnc(N[C@H]3CC[C@H](O)CC3)nc2c1 [Example 334, 2-[(trans-4-hydroxycyclohexyl)amino]-N-[(1S)-1-(hydroxymethyl)propyl]quinazoline-7-carboxamide]
333 nM | CC(C)C[C@@H](CO)NC(=O)c1ccc2cnc(NC3CCCC3)nc2c1 [Example 390, 2-(cyclopentylamino)-N-[(1S)-1-(hydroxymethyl)-3-methylbutyl]quinazoline-7-carboxamide]

Structure (SMILES) | Ki
COC(C)(C)CCOc1cccc2cnc(N[C@H]3CC[C@H](O)CC3)nc12 [Example 241, trans-4-{[8-(3-methoxy-3-methylbutoxy)quinazolin-2-yl]amino}cyclohexanol] | 98 nM
